Test results from patent publication US20260223850A1, “SUBSTITUTED PYRROLIDONE COMPOUND, PREPARATION METHOD THEREFOR, COMPOSITION AND APPLICATION THEREOF” (QINGDAO KINGAGROOT CHEMICAL COMPOUND CO., LTD., priority 2023, published 2026).

Columns and labels:
Format in all cases: in vivo
Digitaria sanguinalis = experiment: Seedling stage sealing experiment for water-seeding; conditions: 120 g a.i./ha, 15 days, fresh weight control rate
Method in brief: (§1)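 Pre-emergence spray on soil-covered seeds in moist bowls, rates 120/60/30/15 g a.i./ha, n = 3. Fresh-weight control graded 0–9 at day 15.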

Echinochloa crusgalli = experiment: as above; conditions: 120 g a.i./ha, 15 days, fresh weight control rate
Echinochloa phyllopogon = experiment: as above; conditions: 120 g a.i./ha, 15 days, fresh weight control rate
Method in brief: as §1

Huaidao (rice cultivar) = experiment: Seedling stage sealing experiment for water-seeding (crop safety); conditions: 120 g a.i./ha, 15 days, fresh weight control rate; for Huaidao (rice cultivar) plant damage level (growth control rate): spray, seedling stage sealing for water-seeding; for Huaidao (rice cultivar) plant damage level: seedling stage sealing
Method in brief: as §1

[1] = spray, seedling stage sealing for water-seeding

SMILES	Digitaria sanguinalis activity level (growth control rate) (Digitaria sanguinalis; [1])	Echinochloa crusgalli activity level (growth control rate) (Echinochloa crusgalli; [1])	Echinochloa phyllopogon activity level (growth control rate) (Echinochloa phyllopogon; [1])	Huaidao (rice cultivar) plant damage level (growth control rate) (Huaidao (rice cultivar))	Digitaria sanguinalis activity level (growth control rate) (Digitaria sanguinalis; seedling stage sealing)	Echinochloa crusgalli activity level (growth control rate) (Echinochloa crusgalli; seedling stage sealing)	Echinochloa phyllopogon activity level (growth control rate) (Echinochloa phyllopogon; seedling stage sealing)	Huaidao (rice cultivar) plant damage level (Huaidao (rice cultivar))
CCn1ncc(NC(=O)[C@H]2C(=O)N(C)C[C@@H]2c2cccc(C)c2)c1F [523′]	9	9	6 (Level 6: growth control rate greater than or equal to 70% and less than 80%)	0				
Cc1cccc([C@H]2CN(C)C(=O)[C@@H]2C(=O)Nc2cnn(C)c2C(F)F)c1 [524′]	9	9	9	2 (Level 2: growth control rate greater than or equal to 10% and less than 20%)				
CCn1ncc(NC(=O)[C@H]2C(=O)N(C)C[C@@H]2c2cccc(C)c2)c1C(F)(F)F [525′]	9	9	9	2 (Level 2: growth control rate greater than or equal to 10% and less than 20%)				
Cc1cccc([C@H]2CN(C)C(=O)[C@@H]2C(=O)Nc2cnn(C(C)C)c2C(F)(F)F)c1 [526′]	9	9	6 (Level 6: growth control rate greater than or equal to 70% and less than 80%)	0				
Cc1cccc([C@H]2CN(C)C(=O)[C@@H]2C(=O)Nc2cnn(C3CC3)c2C(F)(F)F)c1 [527′]	9	9	6 (Level 6: growth control rate greater than or equal to 70% and less than 80%)	0				
Cc1cccc([C@H]2CN(C)C(=O)[C@@H]2C(=O)Nc2cnn(C)c2S(C)(=O)=O)c1 [531′]	9	9	9	0				
CO/N=C/c1c(NC(=O)[C@H]2C(=O)N(C)C[C@@H]2c2cccc(C)c2)cnn1C [532′]	9	9	6 (Level 6: growth control rate greater than or equal to 70% and less than 80%)	0				
CCn1ncc(NC(=O)[C@H]2C(=O)N(C)C[C@@H]2c2cccc(C(F)(F)F)c2)c1F [533′]	9	9	9	0				
CCn1ncc(NC(=O)[C@H]2C(=O)N(C)C[C@@H]2c2cccc(C(F)(F)F)c2)c1C(F)(F)F [535′]	9	9	9	0				
CN1C[C@H](c2cccc(C(F)(F)F)c2)[C@@H](C(=O)Nc2cnn(C)c2[S+](C)[O-])C1=O (stereo partly shown) [539′]	6 (Level 6: growth control rate greater than or equal to 70% and less than 80%)	9		0				
COCn1ncc(NC(=O)[C@H]2C(=O)N(C)C[C@@H]2c2cccc(C(F)(F)F)c2)c1C1CC1 [540′]	9	9	9	0				
Cc1cc(C)cc([C@H]2CN(C)C(=O)[C@@H]2C(=O)Nc2cnn(C)c2C(F)F)c1 [546′]	9	9	9	0				
Cc1cc(C)cc([C@H]2CN(C)C(=O)[C@@H]2C(=O)Nc2cnn(C(C)C)c2C(F)(F)F)c1 [547′]	9	9	9	0				
Cc1cc(C)cc([C@H]2CN(C)C(=O)[C@@H]2C(=O)Nc2cnn(C3CC3)c2C(F)(F)F)c1 [548′]	9	9	6 (Level 6: growth control rate greater than or equal to 70% and less than 80%)	0				
Cc1cc(C)cc([C@H]2CN(C)C(=O)[C@@H]2C(=O)Nc2cnn(C)c2[S+](C)[O-])c1 (stereo partly shown) [552′]	9	9		0				
COCc1c(NC(=O)[C@H]2C(=O)N(C)C[C@@H]2c2cc(C)cc(C)c2)cnn1C [553′]	9	9		2 (Level 2: growth control rate greater than or equal to 10% and less than 20%)				
CN1C[C@H](c2cc(F)cc(Cl)c2)[C@@H](C(=O)Nc2cnn(C(F)F)c2Cl)C1=O [554′]	9	9	9	0				
CN1C[C@H](c2cc(F)cc(Cl)c2)[C@@H](C(=O)Nc2cnn(C)c2C2CC2)C1=O [555′]	9	9	9	0				
CN1C[C@H](c2cc(F)cc(C(F)F)c2)[C@@H](C(=O)Nc2cnn(C)c2Cl)C1=O [556′]	9	9	9	2 (Level 2: growth control rate greater than or equal to 10% and less than 20%)				
Cc1cc([C@H]2CN(C)C(=O)[C@@H]2C(=O)Nc2cnn(C(F)F)c2Cl)cc(C(F)(F)F)c1 [560′]	9	9	9	0				
Cc1cc([C@H]2CN(C)C(=O)[C@@H]2C(=O)Nc2cnn(C)c2C2CC2)cc(C(F)(F)F)c1 [561′]	9	9	9	1 (Level 1: growth control rate less than 10%)				
COc1cccc(C2CN(C)C(=O)C2C(=O)Nc2cnn(C)c2Cl)c1 (stereo not shown) [Compound 28]					9	9	9	0
CC(C)Oc1cccc(C2CN(C)C(=O)C2C(=O)Nc2cnn(C)c2Cl)c1 (stereo not shown) [Compound 29]					9	9	9	0
CN1CC(c2cccc(C(F)(F)F)c2)C(C(=O)Nc2cnn(C)c2F)C1=O (stereo not shown) [Compound 119]					9	9	9	0
CN1CC(c2cccc(C(F)(F)F)c2)C(C(=O)Nc2cnn(C)c2Br)C1=O (stereo not shown) [Compound 120]					9	9	9	0
CN1CC(c2cccc(C(F)(F)F)c2)C(C(=O)Nc2cnn(C)c2)C1=O (stereo not shown) [Compound 156]					7 (Level 7: growth control rate greater than or equal to 80% and less than 90%)	6 (Level 6: growth control rate greater than or equal to 70% and less than 80%)	6 (Level 6: growth control rate greater than or equal to 70% and less than 80%)	0
CN1CC(c2ccc(C(F)(F)F)cc2)C(C(=O)Nc2cnn(C)c2Cl)C1=O (stereo not shown) [Compound 249]					9	8 (Level 8: growth control rate greater than or equal to 90% and less than 100%)	8 (Level 8: growth control rate greater than or equal to 90% and less than 100%)	
CCn1cc(NC(=O)C2C(=O)N(C)CC2c2cccc(C(F)(F)F)c2)cn1 (stereo not shown) [Compound 456]	9	7 (Level 7: growth control rate greater than or equal to 80% and less than 90%)		0				
CN1CC(c2cccc(C(F)(F)F)c2)C(C(=O)Nc2cn(C)nc2C(F)F)C1=O (stereo not shown) [Compound 457]	9			0				
CN1CC(c2ccc(C(F)(F)F)cc2)C(C(=O)Nc2c[nH]nc2Cl)C1=O (stereo not shown) [Control compound A, reference compound]	0	0	0					
